Measurements taken from patent publication US20150093333A1, “COMPOSITIONS, METHODS AND USES FOR PEPTIDES IN DIAGNOSIS, PROGRESSION AND TREATMENT OF CANCERS” (THE REGENTS OF THE UNIVERSITY OF COLORADO, body corporate, priority 2003, published 2015).

Tests used:
[1] = tested on: PS-exposing cell membranes; assay: Fluorescence staining of PS-exposing membranes in dissected gonads of C. elegans; type: in vivo; conditions: wild type (N2), tat-1(tm3117) and ced-7(n2094) animals
Description: Fluorescence staining assays were carried out in an acceptible C. elegans model with PS-exposing cell membranes. […] NBD-MARCKS-ED was used to stain the dissected gonads of wild type (N2) animals, tat-1(tm3117) mutant animals, and engulfment-deficient ced-7 (n2094) mutant animals, respectively. 36 hour old hermaphrodite adult animals were collected and gently dissected by cutting their heads in a depression slide with a gonad dissection buffer (previously presented) to expose the gonads. The exposed gonads were then washed once in the dissection buffer and transferred to a dissection buffer containing 4 μM of Hoechst 33342 and 20 μM of NBD labeled MARCKS-ED peptide, 20 μM NBD-MARCKSmut1 peptide, or 10 nM Alexa Fluor 488-conjugated Annexin-V for 45 minutes. Gonads were washed one more time in the dissection buffer, placed on a 5% agarose pad, and visualized using a Nomarski microscope equipped with an epifluorescence detector.
FIGS. 6A-6C illustrate exemplary staining results using MARCKS derived peptides and Annexin V. PS is typically kept in the inner leaflet of plasma membranes in living cells and is exposed on the cell surface only under certain cellular events, i.e., when cells undergo apoptosis or lose the ability to maintain the PS asymmetry with a tat-1 gene mutation. FIG. 6A represents the staining results with labeled MARCKS-ED in wild type and mutants C. elegans. […] FIG. 6B represents the staining results with labeled MARCKSmut1 in wild type and mutants C. elegans. […] In FIGS. 6A-6B, nuclei were stained with Hoechst 33342. Annexin-V, a known PS-sensor, was also used to stain the gonads of tat-1 and ced-7 mutant C. elegans. […] Hoechst33342 (4 μM), FITC-AnnexinV (10 nM) and Nomarski images are shown. […] Scale bar=10 μm.

[2] = target: lipid vesicles 60% POPC:15% cholesterol:15% POPE:10% POPS; assay: Fluorescence anisotropy titration of NBD-labeled MARCKS peptides with lipid vesicles; type: binding
Description: In another example, because fluorescence enhancement assays could not distinguish the contributions between different degrees of membrane penetration and binding affinity, fluorescence anisotropy assay was performed to specifically measure the binding affinity of the MARCKS derived peptides. The NBD-labeled peptides (1 μM) were titrated by synthetic liposomes of various sizes (30, 100, and 400 nm). Fluorescence anisotropy was recorded using a Fluorolog-3 fluorometer. The mixture was allowed to equilibrate for 2 minutes prior to the next titration. The excitation wavelength was set to λex=480 nm whereas the emission filter was set to λem=545 nm. The voltage was set to 250 V throughout the experiment. Blank PBS (pH=7.40) was titrated to NBD-labeled peptides as a negative control, where negligible anisotropy change was observed. The following equation was used to determine the dissociation constants as previously reported: Fb=Kp [L]/(1+KP[L]), where Fb expresses the fraction of peptide bound to lipids, Kp expresses the molar partition coefficient and [L] expresses the lipid concentration.
Lipid vesicles were titrated to NBD-labeled MARCKS-ED, MARCKSmut1, or MARCKSmut2 peptides. Since the peptide partitions between the hydrophobic lipid bilayer and the aqueous solvent, the molar partition coefficient is often reported. By definition, the apparent dissociation constant (Kd), described as the lipid concentration where 50% of the peptide is bound, is the reciprocal of the molar partition coefficient (Kp). Fluorescence anisotropy assay results indicated efficient curvature sensing by MARCKS-ED. FIG. 4C represents an exemplary fluorescence anisotropy titration of MARCKS-ED with various lipid vesicles. FIG. 4D provides data of fluoresence anisotropy titration of various MARCKS derived peptides. Lipid vesicles used in the experiments represented by FIGS. 4C-4D contained 60% POPC:15% cholesterol: 15% POPE: 10% POPS. […] As a comparison, C2AB illustrated a 1.9 fold increase in binding to smaller vesicles (105 nm) relative to the larger ones (252 nm). […] In addition, electrostatic interactions of MARCKSmut2 were also compromised. […] Such defects would permit the Phe residue to insert and stabilize the highly curved membranes.

microvesicles in plasma = assay: Nanoparticle tracking analysis of microvesicles in plasma from stressed rats treated with MARCKS peptides; type: binding, rat; conditions: Alexa Fluor 546 labeled peptides 55 nM
Description: These isolated microvesicles were measured by nanoparticle tracking analysis (NTA) to confirm their average size (ø=56 nm). Tracking analyses were performed using the NanoSight LM10-HS instrument (Amesbury, UK) equipped with a 532 nm laser and observed at scatter and fluorescence modes (filter=550 nm). The instrument was calibrated using commercially available 50 nm polystyrene beads. […] Alexa Fluor 546™-labeled mouse anti-rat CD63 and unconjugated Alexa Fluor 546™ were used as positive and negative controls, respectively. The profiles of MARCKS-ED-Alexa Fluor 546™ and Alexa Fluor 546™ in the absence of microvesicles were also investigated to confirm that these show negligible scatter and fluorescence background signals under identical NTA conditions.
FIG. 5A represents fluorescence enhancement assay with MARCKS-ED incubated with the isolated microvesicles. Peptide MARCKS-ED ([…]) not treated with microvesicles was used as a negative control. Annexin-V (a positive control) and MARCKS-ED were incubated with the isolated rat microvesicles. Fluorescence was normalized to the negative control. […] The diameter size and particle count of the isolated microvesicles detected by MARCKS-ED was further quantified. Nanoparticle tracking analysis (NTA) uses a laser for scatter and fluorescence modes to track small particles by Brownian motion, providing a robust method for detecting nano-sized microvesicles. Under the fluorescence mode with the emission filter set for the Alexa Fluor 546™, the particles that bound to MARCKS-ED, MARCKSmut1, and MARCKSmut2peptides were observed.
FIG. 5B illustrates the results of NTA of microvesicles treated with MARCKS derived peptides. […] The untreated plasma samples were detected using the scatter mode and treated samples were monitored by tracking the fluorescence of Alexa Fluor 546™ conjugated to the MARCKS-ED MARCKSmut1 and MARCKSmut2 peptides. […] Furthermore, blank samples were performed to rule out possible artifacts of background fluorescence from the peptides, the vesicles and the unconjugated dye.

Sequence: KKKKKRFSFKKSFKLSGFSFKKNKK [MARCKS-ED]
- staining of PS-exposed membranes [1]: recognizes PS exposed on the surface of all germ cells in the tat-1 (tm3117) mutant and un-engulfed apoptotic germ cell corpses in the ced-7(n2094) mutant
- Kd ([2]; 30 nm pore size lipid vesicles containing 10% PS): 24 ± 3 µM
- Kd ([2]; 100 nm pore size lipid vesicles containing 10% PS): 42 ± 13 µM
- Kd ([2]; 400 nm pore size lipid vesicles containing 10% PS): 86 ± 20 µM
- binding to microvesicles in whole plasma (NTA fluorescence mode) (microvesicles in plasma): selectively bind to small-sized microvesicles in whole plasma
